Assay results published in publication PMC5415086 (Nature, 2010).

Key:
[1] = test system: other bromodomain-containing proteins from each arm of the phylogeny tree; experiment: interaction with other bromodomain-containing proteins; type: binding; conditions: selectivity
[2] = test system: panel of 38 unrelated proteins; experiment: activity towards a panel of unrelated proteins; conditions: selectivity
[3] = test system: bone marrow-derived macrophages (BMDMs); experiment: LPS-inducible gene expression in macrophages; type: cell-based, C57BL/6 mice; conditions: for number of LPS-inducible genes down-regulated: I-BET 1 μM, >2 fold
[4] = test system: bone marrow-derived macrophages (BMDMs); experiment: gene transcription in BMDMs without LPS stimulation; type: cell-based, C57BL/6 mice; conditions: absence of LPS stimulation
[5] = test system: bone marrow-derived macrophages (BMDMs); experiment: LPS-induced signalling; type: cell-based, C57BL/6 mice; conditions: I-BET treated cells
[6] = test system: bone marrow-derived macrophages (BMDMs); experiment: viability of BMDMs; type: cell-based, C57BL/6 mice
pCAF = pCAF (Homo sapiens, UniProt Q92831); experiment: histone acetyltransferase; type: biochemical
pCAF, sequence (Q92831 whole entry, species assumed): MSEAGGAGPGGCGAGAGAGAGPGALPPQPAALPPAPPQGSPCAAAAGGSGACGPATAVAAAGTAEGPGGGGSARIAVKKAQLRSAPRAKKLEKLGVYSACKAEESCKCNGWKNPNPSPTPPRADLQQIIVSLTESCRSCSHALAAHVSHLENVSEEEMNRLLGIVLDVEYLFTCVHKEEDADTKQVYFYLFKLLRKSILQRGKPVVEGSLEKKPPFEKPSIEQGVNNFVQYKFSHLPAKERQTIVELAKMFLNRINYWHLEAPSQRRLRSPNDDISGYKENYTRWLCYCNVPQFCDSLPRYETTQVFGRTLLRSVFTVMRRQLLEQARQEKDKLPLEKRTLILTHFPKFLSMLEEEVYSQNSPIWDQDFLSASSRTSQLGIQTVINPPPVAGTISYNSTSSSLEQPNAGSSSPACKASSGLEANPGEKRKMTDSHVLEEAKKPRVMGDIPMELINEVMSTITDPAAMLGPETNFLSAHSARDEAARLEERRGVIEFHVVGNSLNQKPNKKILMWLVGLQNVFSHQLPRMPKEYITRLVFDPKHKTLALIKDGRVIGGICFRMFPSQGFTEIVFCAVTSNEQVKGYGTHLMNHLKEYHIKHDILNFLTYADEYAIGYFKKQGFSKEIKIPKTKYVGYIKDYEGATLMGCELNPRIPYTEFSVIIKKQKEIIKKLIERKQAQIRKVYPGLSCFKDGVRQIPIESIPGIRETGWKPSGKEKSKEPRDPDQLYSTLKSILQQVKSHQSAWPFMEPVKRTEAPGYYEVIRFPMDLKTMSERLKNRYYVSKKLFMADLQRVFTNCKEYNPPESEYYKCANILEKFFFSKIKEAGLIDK

p300 = p300 (Homo sapiens, UniProt Q09472); experiment: histone acetyltransferase; type: biochemical
p300, sequence (Q09472 whole entry, species assumed): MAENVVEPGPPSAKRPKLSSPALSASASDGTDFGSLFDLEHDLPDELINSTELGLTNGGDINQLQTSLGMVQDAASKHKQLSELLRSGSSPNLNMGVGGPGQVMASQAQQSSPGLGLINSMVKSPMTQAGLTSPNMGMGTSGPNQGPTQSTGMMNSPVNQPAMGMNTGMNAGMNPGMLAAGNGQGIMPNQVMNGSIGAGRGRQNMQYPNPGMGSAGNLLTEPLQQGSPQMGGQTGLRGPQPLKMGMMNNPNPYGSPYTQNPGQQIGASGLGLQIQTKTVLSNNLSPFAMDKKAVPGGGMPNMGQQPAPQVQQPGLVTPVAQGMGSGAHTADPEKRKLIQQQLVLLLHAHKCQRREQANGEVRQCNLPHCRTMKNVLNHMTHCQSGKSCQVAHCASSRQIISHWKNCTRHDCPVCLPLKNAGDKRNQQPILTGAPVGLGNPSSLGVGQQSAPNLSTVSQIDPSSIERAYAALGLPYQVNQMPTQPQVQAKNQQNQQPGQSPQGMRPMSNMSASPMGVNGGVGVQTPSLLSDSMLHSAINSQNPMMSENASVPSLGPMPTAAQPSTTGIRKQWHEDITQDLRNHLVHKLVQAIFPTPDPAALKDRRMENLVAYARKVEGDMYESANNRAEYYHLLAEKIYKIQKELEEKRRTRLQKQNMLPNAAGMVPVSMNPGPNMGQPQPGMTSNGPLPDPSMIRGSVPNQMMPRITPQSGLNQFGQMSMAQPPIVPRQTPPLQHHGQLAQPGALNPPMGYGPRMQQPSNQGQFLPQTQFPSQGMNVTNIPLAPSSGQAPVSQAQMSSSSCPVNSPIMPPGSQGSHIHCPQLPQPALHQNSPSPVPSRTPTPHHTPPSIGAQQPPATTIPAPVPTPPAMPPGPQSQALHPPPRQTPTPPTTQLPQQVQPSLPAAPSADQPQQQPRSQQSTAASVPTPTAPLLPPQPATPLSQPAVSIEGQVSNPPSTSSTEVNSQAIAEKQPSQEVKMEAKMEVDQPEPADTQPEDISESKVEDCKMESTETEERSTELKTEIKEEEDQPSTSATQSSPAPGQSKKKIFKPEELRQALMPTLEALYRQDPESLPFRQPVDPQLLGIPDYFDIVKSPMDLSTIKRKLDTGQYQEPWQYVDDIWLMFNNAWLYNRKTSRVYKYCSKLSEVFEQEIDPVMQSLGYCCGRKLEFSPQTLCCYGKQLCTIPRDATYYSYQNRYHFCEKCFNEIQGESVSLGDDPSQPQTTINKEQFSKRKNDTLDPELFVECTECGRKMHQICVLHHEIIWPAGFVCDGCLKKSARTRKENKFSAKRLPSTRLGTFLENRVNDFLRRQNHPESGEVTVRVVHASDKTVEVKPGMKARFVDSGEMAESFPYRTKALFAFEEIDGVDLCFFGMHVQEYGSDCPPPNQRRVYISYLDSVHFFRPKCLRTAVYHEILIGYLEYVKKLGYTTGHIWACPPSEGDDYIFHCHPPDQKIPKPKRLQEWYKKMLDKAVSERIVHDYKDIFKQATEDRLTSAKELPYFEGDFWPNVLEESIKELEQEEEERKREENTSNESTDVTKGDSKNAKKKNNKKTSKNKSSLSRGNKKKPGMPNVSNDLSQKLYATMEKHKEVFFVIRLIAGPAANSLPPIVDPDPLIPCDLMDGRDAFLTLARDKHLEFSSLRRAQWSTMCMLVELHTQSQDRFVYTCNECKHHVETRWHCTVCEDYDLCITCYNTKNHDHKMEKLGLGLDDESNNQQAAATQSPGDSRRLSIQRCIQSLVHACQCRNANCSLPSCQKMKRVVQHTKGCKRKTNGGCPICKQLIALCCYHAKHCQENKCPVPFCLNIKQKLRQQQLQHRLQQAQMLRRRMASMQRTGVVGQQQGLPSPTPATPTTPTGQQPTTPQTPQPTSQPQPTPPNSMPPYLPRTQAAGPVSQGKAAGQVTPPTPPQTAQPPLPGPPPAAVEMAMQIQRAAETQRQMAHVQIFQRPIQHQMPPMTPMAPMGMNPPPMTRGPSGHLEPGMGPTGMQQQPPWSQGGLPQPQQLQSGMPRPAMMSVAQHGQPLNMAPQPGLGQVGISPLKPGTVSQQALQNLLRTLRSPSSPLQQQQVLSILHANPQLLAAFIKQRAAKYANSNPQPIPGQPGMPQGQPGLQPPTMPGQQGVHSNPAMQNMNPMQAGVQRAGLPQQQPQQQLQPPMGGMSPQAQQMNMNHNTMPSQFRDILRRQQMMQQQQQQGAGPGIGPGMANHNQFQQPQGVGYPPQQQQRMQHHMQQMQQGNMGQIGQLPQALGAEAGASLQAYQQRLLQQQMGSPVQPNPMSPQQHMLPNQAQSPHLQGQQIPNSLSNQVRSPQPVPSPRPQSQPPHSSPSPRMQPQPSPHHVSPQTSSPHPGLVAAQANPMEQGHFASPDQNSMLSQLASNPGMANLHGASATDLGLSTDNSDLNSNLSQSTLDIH

GCN5 = GCN5 (Homo sapiens, UniProt Q92830); experiment: histone acetyltransferase; type: biochemical
GCN5, sequence (Q92830 whole entry, species assumed): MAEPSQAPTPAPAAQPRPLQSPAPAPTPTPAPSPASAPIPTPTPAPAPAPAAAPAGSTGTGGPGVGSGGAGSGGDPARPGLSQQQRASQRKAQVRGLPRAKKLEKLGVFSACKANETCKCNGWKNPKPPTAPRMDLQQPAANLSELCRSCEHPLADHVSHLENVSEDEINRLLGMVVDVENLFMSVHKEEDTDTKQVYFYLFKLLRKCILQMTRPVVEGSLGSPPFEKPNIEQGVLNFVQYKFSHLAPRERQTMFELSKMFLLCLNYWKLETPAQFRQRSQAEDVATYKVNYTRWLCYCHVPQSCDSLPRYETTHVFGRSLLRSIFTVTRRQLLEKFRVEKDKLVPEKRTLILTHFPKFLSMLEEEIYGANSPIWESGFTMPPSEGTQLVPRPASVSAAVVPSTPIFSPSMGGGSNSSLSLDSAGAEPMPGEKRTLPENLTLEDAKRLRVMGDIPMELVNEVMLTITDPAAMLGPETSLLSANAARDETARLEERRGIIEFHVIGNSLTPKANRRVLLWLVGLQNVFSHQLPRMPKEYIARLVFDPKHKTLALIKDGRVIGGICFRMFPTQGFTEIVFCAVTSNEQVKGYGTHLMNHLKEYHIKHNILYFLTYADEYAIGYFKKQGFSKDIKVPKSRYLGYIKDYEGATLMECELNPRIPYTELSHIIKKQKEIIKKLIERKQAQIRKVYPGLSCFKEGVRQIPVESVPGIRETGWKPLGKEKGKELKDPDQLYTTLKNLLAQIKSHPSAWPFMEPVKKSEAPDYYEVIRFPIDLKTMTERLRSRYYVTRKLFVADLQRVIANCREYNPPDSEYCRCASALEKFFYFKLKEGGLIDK

CBP = CBP (Homo sapiens, UniProt Q92793); experiment: histone acetyltransferase; type: biochemical
[7] = test system: il6 promoter in bone marrow-derived macrophages; experiment: ChIP of epigenetic marks at gene promoters in LPS-stimulated macrophages; type: cell-based, C57BL/6 mice; conditions: I-BET 5 μM
[8] = test system: bone marrow-derived macrophages (BMDMs); type: cell-based, C57BL/6 mice; conditions: BMDM treatment with the HDAC inhibitor

Row | SMILES | interaction with other bromodomain-containing proteins [1] | activity towards a panel of 38 unrelated proteins [2] | number of LPS-inducible genes down-regulated ([3]; 1 hour after LPS) | number of LPS-inducible genes down-regulated ([3]; 4 hours after LPS) | expression of tnf, ccl2-5, cxcl1/2 ([3]; LPS-stimulated BMDMs) | effect on gene transcription [4] | LPS-induced ERK phosphorylation and IκBα degradation [5] | effect on viability of BMDMs [6] | suppression of HAT activity (pCAF) | suppression of HAT activity (p300) | suppression of HAT activity (GCN5) | suppression of HAT activity (CBP) | BET recruitment at il6 promoter [7] | conversion of sI-BET genes into naI-BET genes [8]
1 | CCNC(=O)C[C@@H]1N=C(c2ccc(Cl)cc2)c2cc(OC)ccc2-n2c(C)nnc21 [I-BET] | did not interact | no activity | 38 | 151 | not affected | marginal effect | unaltered pattern | no effect | inability of I-BET to suppress the activity | inability of I-BET to suppress the activity | inability of I-BET to suppress the activity | inability of I-BET to suppress the activity | marked reduction | –
2 | CC(/C=C/C(=O)NO)=C\[C@@H](C)C(=O)c1ccc(N(C)C)cc1 [trichostatin A] | – | – | – | – | – | – | – | – | – | – | – | – | – | able to “convert” sI-BET into naI-BET genes
